From the supplement of paper PMC10307832

Compound: Cc1nc(NC(=O)N2CCC[C@H]2C(N)=O)sc1-c1ccnc(C(C)(C)C(F)(F)F)c1 [Alpelisib] + COc1cc2c(Oc3ccc(NC(=O)C4(C(=O)Nc5ccc(F)cc5)CC4)cc3F)ccnc2cc1OCCCN1CCOCC1 [Foretinib] (partner 0.25 µM)
Assay: relative viability (nuclei count vs DMSO), 5 days (fraction); higher = more cells survive
Conditions: first compound 0.04 µM
Outline: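 Relative viability was taken as the ratio of nuclei in treated wells to nuclei in vehicle wells. Lung cancer cell lines in 1536-well plates received compounds by pin tool one day after seeding, either one drug alone or a fixed anchor-drug dose plus five library-drug doses (not always all listed) in √10 steps. Nuclei were counted on 4× images after 5 days of treatment, and values are medians of duplicate plates.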

Cell Line | relative viability
NCI-H2126 | 1.05
EPLC-272H | 0.723
NCI-H1755 | 0.95
NCI-H2023 | 0.82
NCI-H1623 | 0.833
NCI-H1650 | 1.09
NCI-H1793 | 0.733
NCI-H2342 | 1.01
H3255 | 0.973
NCI-H1975 | 0.915
PC-14 | 0.914
NCI-H1299 | 1.12
NCI-H1437 | 1.23
HOP-62 | 1.08
BEN | 0.792
LOU-NH91 | 0.933
NCI-H661 | 1.02
NCI-H1651 | 0.683
PC-3 [JPC-3] | 1.08

Cell Line | relative viability
SW 1573 | 0.854
LK-2 | 1.07
NCI-H2405 | 1.1
NCI-H1703 | 0.295
NCI-H1993 | 0.737
ChaGo-K-1 | 0.881
NCI-H1355 | 0.951
HCC-366 | 0.887
NCI-H1915 | 1.12
NCI-H838 | 0.94
A-427 | 1.19
NCI-H2009 | 1.23
ABC-1 | 1.28
EKVX | 0.519
NCI-H2087 | 0.903
NCI-H2170 | 0.978
NCI-H1563 | 0.861
SW 900 | 1.22

Same assay, conditions: first compound 0.1265 µM

Cell Line | relative viability
NCI-H2126 | 1.01
EPLC-272H | 0.674
NCI-H1755 | 0.924
NCI-H2023 | 0.844
NCI-H1623 | 0.744
NCI-H1650 | 1.1
NCI-H1793 | 0.666
NCI-H2342 | 1.08
H3255 | 0.753
NCI-H1975 | 0.872
PC-14 | 1.01
NCI-H1299 | 1.12
NCI-H1437 | 1.33
HOP-62 | 1.15
BEN | 0.401
LOU-NH91 | 0.853
NCI-H661 | 1.05
NCI-H1651 | 0.853
PC-3 [JPC-3] | 1

Cell Line | relative viability
SW 1573 | 0.713
LK-2 | 1.19
NCI-H2405 | 1
NCI-H1703 | 0.362
NCI-H1993 | 0.697
ChaGo-K-1 | 0.91
NCI-H1355 | 0.926
HCC-366 | 0.939
NCI-H1915 | 1.1
NCI-H838 | 0.961
A-427 | 0.833
NCI-H2009 | 1.2
ABC-1 | 0.876
EKVX | 0.726
NCI-H2087 | 1.07
NCI-H2170 | 0.914
NCI-H1563 | 0.95
SW 900 | 0.991

Same assay, conditions: first compound 0.4 µM

Cell Line | relative viability
NCI-H2126 | 1.04
EPLC-272H | 0.754
NCI-H1755 | 0.962
NCI-H2023 | 0.667
NCI-H1623 | 0.845
NCI-H1650 | 1.35
NCI-H1793 | 0.77
NCI-H2342 | 1.07
H3255 | 0.96
NCI-H1975 | 0.883
PC-14 | 0.977
NCI-H1299 | 1.19
NCI-H1437 | 1.33
HOP-62 | 1.23
BEN | 0.732
LOU-NH91 | 0.81
NCI-H661 | 1.08
NCI-H1651 | 0.791
PC-3 [JPC-3] | 1.07

Cell Line | relative viability
SW 1573 | 0.823
LK-2 | 1.28
NCI-H2405 | 1.1
NCI-H1703 | 0.381
NCI-H1993 | 0.771
ChaGo-K-1 | 1.01
NCI-H1355 | 1.04
HCC-366 | 0.868
NCI-H1915 | 1.15
NCI-H838 | 1.01
A-427 | 1.11
NCI-H2009 | 1.25
ABC-1 | 0.878
EKVX | 0.66
NCI-H2087 | 1.31
NCI-H2170 | 1.12
NCI-H1563 | 0.909
SW 900 | 0.79

Same assay, conditions: first compound 1.265 µM

Cell Line | relative viability
NCI-H2126 | 1.07
EPLC-272H | 0.376
NCI-H1755 | 0.785
NCI-H2023 | 0.605
NCI-H1623 | 0.54
NCI-H1650 | 0.867
NCI-H1793 | 0.402
NCI-H2342 | 0.767
H3255 | 0.695
NCI-H1975 | 0.691
PC-14 | 0.807
NCI-H1299 | 0.978
NCI-H1437 | 1.27
HOP-62 | 1.02
BEN | 0.737
LOU-NH91 | 0.738
NCI-H661 | 1.02
NCI-H1651 | 0.571
PC-3 [JPC-3] | 0.987

Cell Line | relative viability
SW 1573 | 0.696
LK-2 | 0.906
NCI-H2405 | 0.849
NCI-H1703 | 0.271
NCI-H1993 | 0.544
ChaGo-K-1 | 0.807
NCI-H1355 | 0.851
HCC-366 | 0.861
NCI-H1915 | 1.03
NCI-H838 | 0.892
A-427 | 0.831
NCI-H2009 | 1.1
ABC-1 | 0.611
EKVX | 0.67
NCI-H2087 | 0.814
NCI-H2170 | 0.922
NCI-H1563 | 0.713
SW 900 | 0.885

Same assay, conditions: first compound 4 µM

Cell Line | relative viability
NCI-H2126 | 0.904
EPLC-272H | 0.422
NCI-H1755 | 0.731
NCI-H2023 | 0.527
NCI-H1623 | 0.494
NCI-H1650 | 1.15
